Consider two compounds from ChEMBL document CHEMBL6153041, “Discovery of High-Affinity SMARCA2/4 Bromodomain Ligands and Development of Potent and Exceptionally Selective SMARCA2 PROTAC Degraders” (J Med Chem, 2025).

For orientation: Emax means the greatest response seen or fitted, relative to the assay's reference. In general, DC50 refers to the concentration at which degradation of the target reaches its halfway point.

What all share (type): cell-based
Test [1] deals with T1, von Hippel-Lindau disease tumor suppressor/SWI/SNF-related matrix-associated actin-dependent regulator of chromatin subfamily A member 4 (Homo sapiens, UniProt P51532+P40337). In words: PROTAC activity at VHL/SMARCA4 in human MV4-11 cells assessed as degradation.
Target sequence in this assay (P40337 whole entry, looked up): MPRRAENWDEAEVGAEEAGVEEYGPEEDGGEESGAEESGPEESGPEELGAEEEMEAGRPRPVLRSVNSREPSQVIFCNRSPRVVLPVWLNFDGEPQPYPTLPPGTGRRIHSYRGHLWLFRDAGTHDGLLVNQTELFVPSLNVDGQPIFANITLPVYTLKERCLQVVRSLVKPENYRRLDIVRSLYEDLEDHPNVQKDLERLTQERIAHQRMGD
Target sequence in this assay (P51532 whole entry, looked up): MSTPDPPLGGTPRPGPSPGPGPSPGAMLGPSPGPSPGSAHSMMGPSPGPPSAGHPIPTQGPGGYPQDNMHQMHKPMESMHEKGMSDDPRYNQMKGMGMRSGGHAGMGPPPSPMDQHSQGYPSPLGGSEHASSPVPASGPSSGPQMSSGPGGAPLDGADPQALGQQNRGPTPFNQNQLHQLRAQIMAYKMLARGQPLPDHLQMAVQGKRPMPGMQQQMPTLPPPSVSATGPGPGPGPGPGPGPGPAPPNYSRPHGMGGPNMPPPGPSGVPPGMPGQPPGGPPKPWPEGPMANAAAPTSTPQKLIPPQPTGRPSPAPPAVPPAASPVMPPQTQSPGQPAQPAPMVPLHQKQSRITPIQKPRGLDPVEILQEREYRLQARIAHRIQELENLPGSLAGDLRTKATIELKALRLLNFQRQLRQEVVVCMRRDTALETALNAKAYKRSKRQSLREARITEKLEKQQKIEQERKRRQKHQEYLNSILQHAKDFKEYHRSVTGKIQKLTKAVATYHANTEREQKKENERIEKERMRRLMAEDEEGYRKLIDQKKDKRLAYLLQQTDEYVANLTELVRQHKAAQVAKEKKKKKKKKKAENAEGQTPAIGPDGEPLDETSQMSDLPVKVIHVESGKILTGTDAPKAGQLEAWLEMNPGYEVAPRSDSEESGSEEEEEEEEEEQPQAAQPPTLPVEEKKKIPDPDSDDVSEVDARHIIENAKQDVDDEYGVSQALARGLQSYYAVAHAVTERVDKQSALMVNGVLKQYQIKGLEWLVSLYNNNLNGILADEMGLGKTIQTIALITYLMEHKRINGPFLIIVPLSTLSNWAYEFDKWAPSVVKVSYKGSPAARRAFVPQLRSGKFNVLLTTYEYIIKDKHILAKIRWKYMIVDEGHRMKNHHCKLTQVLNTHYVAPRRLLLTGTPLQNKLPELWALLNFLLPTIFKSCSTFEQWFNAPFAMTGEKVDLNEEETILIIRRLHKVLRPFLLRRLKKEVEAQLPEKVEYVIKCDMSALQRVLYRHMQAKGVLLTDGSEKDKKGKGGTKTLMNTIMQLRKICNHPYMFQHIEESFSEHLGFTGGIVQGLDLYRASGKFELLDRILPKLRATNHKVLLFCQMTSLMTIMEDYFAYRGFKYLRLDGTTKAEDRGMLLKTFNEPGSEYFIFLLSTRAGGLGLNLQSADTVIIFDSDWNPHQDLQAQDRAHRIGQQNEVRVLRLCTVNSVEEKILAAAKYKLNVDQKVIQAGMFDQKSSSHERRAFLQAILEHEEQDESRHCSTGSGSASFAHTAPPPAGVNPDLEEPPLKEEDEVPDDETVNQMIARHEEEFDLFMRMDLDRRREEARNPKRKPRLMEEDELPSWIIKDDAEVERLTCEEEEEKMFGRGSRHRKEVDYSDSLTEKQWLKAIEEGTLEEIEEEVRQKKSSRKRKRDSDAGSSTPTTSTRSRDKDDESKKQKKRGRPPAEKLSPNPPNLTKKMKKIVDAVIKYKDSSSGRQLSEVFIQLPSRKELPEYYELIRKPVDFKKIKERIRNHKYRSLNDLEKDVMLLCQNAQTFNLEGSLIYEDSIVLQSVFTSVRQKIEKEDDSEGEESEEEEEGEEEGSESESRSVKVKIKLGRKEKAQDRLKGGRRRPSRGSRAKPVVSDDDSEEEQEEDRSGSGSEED
Test [2] addresses T2, von Hippel-Lindau disease tumor suppressor/SWI/SNF-related matrix-associated actin-dependent regulator of chromatin subfamily A member 2 (Homo sapiens, UniProt P51531+P40337). Briefly: PROTAC activity at VHL/SMARCA2 in human MV4-11 cells assessed as maximal degradation relative to control.
Target sequence in this assay (P51531 whole entry): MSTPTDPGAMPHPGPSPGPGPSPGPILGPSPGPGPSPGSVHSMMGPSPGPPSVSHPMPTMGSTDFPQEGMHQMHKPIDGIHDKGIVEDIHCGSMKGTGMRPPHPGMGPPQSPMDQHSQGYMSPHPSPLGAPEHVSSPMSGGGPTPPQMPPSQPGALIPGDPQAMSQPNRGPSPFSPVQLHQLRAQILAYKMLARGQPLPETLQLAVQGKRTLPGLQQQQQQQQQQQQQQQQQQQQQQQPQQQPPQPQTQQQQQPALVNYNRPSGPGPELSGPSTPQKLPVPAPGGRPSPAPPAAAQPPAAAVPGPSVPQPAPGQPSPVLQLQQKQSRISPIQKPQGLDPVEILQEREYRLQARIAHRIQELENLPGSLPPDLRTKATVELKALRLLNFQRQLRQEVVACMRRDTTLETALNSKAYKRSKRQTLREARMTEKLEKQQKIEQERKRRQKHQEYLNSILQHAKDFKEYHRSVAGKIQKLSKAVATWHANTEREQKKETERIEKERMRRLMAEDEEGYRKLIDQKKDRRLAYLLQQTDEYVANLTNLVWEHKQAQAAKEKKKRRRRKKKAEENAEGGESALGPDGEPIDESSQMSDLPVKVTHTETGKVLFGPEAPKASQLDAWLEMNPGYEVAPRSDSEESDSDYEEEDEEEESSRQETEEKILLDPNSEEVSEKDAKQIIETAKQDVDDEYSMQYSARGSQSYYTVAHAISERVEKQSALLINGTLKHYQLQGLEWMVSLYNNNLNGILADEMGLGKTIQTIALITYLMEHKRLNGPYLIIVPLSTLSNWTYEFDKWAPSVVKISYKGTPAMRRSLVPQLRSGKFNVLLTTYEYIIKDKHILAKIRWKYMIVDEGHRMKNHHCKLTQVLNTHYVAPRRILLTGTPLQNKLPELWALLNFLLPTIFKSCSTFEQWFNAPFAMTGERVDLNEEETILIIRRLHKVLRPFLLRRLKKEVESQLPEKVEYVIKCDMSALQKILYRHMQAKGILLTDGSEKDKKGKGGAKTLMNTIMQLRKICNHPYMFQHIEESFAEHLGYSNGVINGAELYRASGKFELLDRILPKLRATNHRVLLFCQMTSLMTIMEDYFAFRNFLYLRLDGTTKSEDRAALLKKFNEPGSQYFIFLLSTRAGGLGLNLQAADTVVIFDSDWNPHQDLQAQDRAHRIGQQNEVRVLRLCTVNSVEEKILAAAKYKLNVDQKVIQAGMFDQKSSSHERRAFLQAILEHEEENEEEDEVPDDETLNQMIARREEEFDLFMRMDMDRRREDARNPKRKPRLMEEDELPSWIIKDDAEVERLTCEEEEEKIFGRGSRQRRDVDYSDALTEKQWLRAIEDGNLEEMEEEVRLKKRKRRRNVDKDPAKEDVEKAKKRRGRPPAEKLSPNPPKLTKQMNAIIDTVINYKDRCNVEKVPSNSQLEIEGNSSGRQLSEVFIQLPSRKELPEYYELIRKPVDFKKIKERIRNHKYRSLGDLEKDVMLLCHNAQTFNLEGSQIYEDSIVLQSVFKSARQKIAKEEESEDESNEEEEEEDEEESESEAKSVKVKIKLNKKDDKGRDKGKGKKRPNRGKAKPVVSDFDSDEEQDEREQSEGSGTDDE
Target sequence in this assay (P40337 whole entry): as the sequence (P40337 whole entry, looked up) above
Test [3] addresses T1, von Hippel-Lindau disease tumor suppressor/SWI/SNF-related matrix-associated actin-dependent regulator of chromatin subfamily A member 4. Briefly: PROTAC activity at VHL/SMARCA4 in human MV4-11 cells assessed as maximal degradation relative to control.
Target sequence in this assay (P40337 whole entry, looked up): as above
Target sequence in this assay (P51532 whole entry, looked up): as the sequence (P51532 whole entry, looked up) above
The target is the same in test [4]. Briefly: PROTAC activity at VHL1/SMARCA4 in human genetically modified Hela cells assessed as maximal degradation measured after 24 hrs incubation by Nano-Glo HiBiT Lytic Detection Assay relative to control. For orientation: The HiBiT peptide binds its large partner to form an active luciferase.
Target sequence in this assay (P40337 whole entry, looked up): as the sequence (P40337 whole entry, looked up) above
Target sequence in this assay (P51532 whole entry, looked up): as the sequence (P51532 whole entry, looked up) above
In test [5] the target is T2, von Hippel-Lindau disease tumor suppressor/SWI/SNF-related matrix-associated actin-dependent regulator of chromatin subfamily A member 2. In words: PROTAC activity at VHL1/SMARCA2 in human genetically modified Hela cells assessed as maximal degradation measured after 24 hrs incubation by Nano-Glo HiBiT Lytic Detection Assay relative to control.
Target sequence in this assay (P40337 whole entry, looked up): as the sequence (P40337 whole entry, looked up) above
Target sequence in this assay (P51531 whole entry, looked up): as the sequence (P51531 whole entry) above
For test [6] the target is unchanged. Briefly: PROTAC activity at VHL1/SMARCA2 in human genetically modified Hela cells assessed as degradation measured after 24 hrs incubation by Nano-Glo HiBiT Lytic Detection Assay.
Target sequence in this assay (P51531 whole entry): as above
Target sequence in this assay (P40337 whole entry): as the sequence (P40337 whole entry, looked up) above
Test [7] has as its target T3, Protein cereblon/SWI/SNF-related matrix-associated actin-dependent regulator of chromatin subfamily A member 4 (Homo sapiens) (UniProt P51532+Q96SW2). Briefly: PROTAC activity at CRBN/SMARCA4 in human RKO cells assessed as degradation measured after 24 hrs by Western blot analysis. In general terms: Immunoblotting shows a protein as a band on a membrane.
Test [8] addresses T4, Protein cereblon/SWI/SNF-related matrix-associated actin-dependent regulator of chromatin subfamily A member 2 (Homo sapiens, UniProt P51531+Q96SW2). In words: PROTAC activity at CRBN/SMARCA2 in human RKO cells assessed as maximal degradation measured after 24 hrs by Western blot analysis relative to control.
For test [9], the target named is T1, von Hippel-Lindau disease tumor suppressor/SWI/SNF-related matrix-associated actin-dependent regulator of chromatin subfamily A member 4. Briefly: PROTAC activity at VHL1/SMARCA4 in human genetically modified Hela cells assessed as degradation measured after 24 hrs incubation by Nano-Glo HiBiT Lytic Detection Assay.
Target sequence in this assay (P51532 whole entry): as the sequence (P51532 whole entry, looked up) above
Target sequence in this assay (P40337 whole entry): as the sequence (P40337 whole entry, looked up) above
For test [10], the target named is T3, Protein cereblon/SWI/SNF-related matrix-associated actin-dependent regulator of chromatin subfamily A member 4 (Homo sapiens). Briefly: PROTAC activity at CRBN/SMARCA4 in human RKO cells assessed as maximal degradation measured after 24 hrs by Western blot analysis relative to control.
Test [11] concerns the target T4, Protein cereblon/SWI/SNF-related matrix-associated actin-dependent regulator of chromatin subfamily A member 2. Briefly: PROTAC activity at CRBN/SMARCA2 in human RKO cells assessed as degradation measured after 24 hrs by Western blot analysis.
The next test deals with HeLa. Briefly: Selectivity ratio, ratio of DC50 for VHL1/SMARCA4 in human genetically modified Hela cells to VHL1/SMARCA2 in human genetically modified Hela cells.

T3 sequence (P51532 whole entry, looked up): as the sequence (P51532 whole entry, looked up) above
T3 sequence (Q96SW2 whole entry, looked up): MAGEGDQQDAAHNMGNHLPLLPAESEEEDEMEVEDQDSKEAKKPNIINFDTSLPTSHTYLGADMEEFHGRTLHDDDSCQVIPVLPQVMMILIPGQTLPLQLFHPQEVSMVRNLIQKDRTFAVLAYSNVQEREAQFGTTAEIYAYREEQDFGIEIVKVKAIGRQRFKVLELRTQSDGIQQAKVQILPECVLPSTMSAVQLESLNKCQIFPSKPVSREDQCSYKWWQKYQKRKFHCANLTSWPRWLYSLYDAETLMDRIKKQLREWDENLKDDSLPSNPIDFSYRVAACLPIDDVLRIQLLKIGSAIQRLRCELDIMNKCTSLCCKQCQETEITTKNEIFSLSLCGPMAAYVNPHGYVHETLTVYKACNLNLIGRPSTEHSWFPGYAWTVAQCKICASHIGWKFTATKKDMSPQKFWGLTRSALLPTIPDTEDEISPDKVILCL
T4 sequence (P51531 whole entry): as the sequence (P51531 whole entry) above
T4 sequence (Q96SW2 whole entry): as the sequence (Q96SW2 whole entry, looked up) above

On to `Cc1ncsc1-c1ccc(CNC(=O)[C@@H]2C[C@@H](O)CN2C(=O)[C@@H](NC(=O)C2(F)CC2)C(C)(C)C)c(OCCOc2ccc(CN3CCN(c4cc(-c5ccccc5O)nnc4N)CC3)cc2)c1`, for which the Emax in [1] and in test [3] was greater than 95% throughout. In test [2], the DC50 amounted to 11 nM.

Turning to `Cc1ncsc1-c1ccc([C@H](CC[C@H](C)CCN2CCC(c3ccc4c(c3)n(C3CCCC3)c3nc(=O)c5c(Br)cccc5n43)CC2)NC(=O)[C@@H]2C[C@@H](O)CN2C(=O)[C@@H](NC(=O)C2(F)CC2)C(C)(C)C)cc1`, the Emax in test [4] stood at 86%; in test [5], 93%; in [7], 81%; in test [10], 67%. For the same compound, the DC50 in [6] came to 2.3 nM; in test [8], 32 nM; in test [9], 33 nM; in test [11], 1 nM. Also, the Ratio in the test on HeLa was 12.
